The results in this text go back to patent US20090227674A1, “Combination methods fo saha and targretin for treating cancer” (priority 2005, published 2009).

The subject of the data set is HH cells (CTCL cells; ATCC). The experiment in a line: ViaLight Plus viability/proliferation assay, Vorinostat and Targretin combination. The data set is classed as cell-based. The procedure:
Data from these assays was used to determine the range of combination concentrations. Both compounds were combined at concentrations close to their IC50 values. Subsequent combination viability/proliferation assays were performed using the ViaLight Plus protocol.
Costar white with clear bottom 96 well plates (#3603) were seeded with 25,000 cells per well in a volume of 100 μL/well of growth media for each time point. HH cell line growth media included RPMI (GIBCO #) with 10% FBS (GIBCO # SV30014.03), 1% Glutamax (GIBCO # 35050-061), and 1% Penicillin/Streptomycin (GIBCO # 30-002). […] For the fixed ratio method, compounds were combined and diluted together serially. […] For each treatment concentration, 25 μL of the appropriate dilution for each compound was added to the corresponding wells. Wells on the outer perimeter of the plate were not used. At each time-point, plates were read using the ViaLight Plus protocol. Luminescence was read using the Victor V plate reader.

Regarding `O=C(CCCCCCC(=O)Nc1ccccc1)NO` [Vorinostat, N-Hydroxy-N′-phenyl octanediamide], under “Homo sapiens, HH, read-out: decrease in cell viability”, the cytotoxicity at 0.37 µM was around 40%.
With `C=C(c1ccc(C(=O)O)cc1)c1cc2c(cc1C)C(C)(C)CCC2(C)C` [Targretin®, 4-[1-(5,6,7,8-Tetrahydro-3,5,5,8,8-pentamethyl-2-naphthalenyl)ethenyl]benzoic acid], the decrease in viability (HH cell line, 0.60 μM Targretin alone (FIG. 1A)) was around 40%.
